Source: ChEMBL document CHEMBL5055679, “Discovery of a Novel Androgen Receptor Antagonist Manifesting Evidence to Disrupt the Dimerization of the Ligand-Binding Domain via Attenuating the Hydrogen-Bonding Network Between the Two Monomers” (J Med Chem, 2021)
Active and inactive are the calls of the source. The rule behind the calls is not given here.

Assays:
NIH3T3 = assay: Cytotoxicity against mouse NIH3T3 cells assessed as reduction in cell viability incubated for 72 hrs by MTT assay; format: cell-based; settings: nih3t3, 72 h
PC-3 = assay: Cytotoxicity against human PC-3 cells assessed as reduction in cell viability incubated for 72 hrs by MTT assay; format: functional, cell-based
LNCaP [1] = assay: Inhibition of colony formation in human LANCaP cells after 2 weeks by crystal violet staining based assay; format: functional, cell-based; settings: dose 2-20 µM
[2] = molecular target: T1, Progesterone receptor (Homo sapiens) (UniProt P06401); assay: Agonist activity at progesterone receptor in human HEK293T cells by dual-Glo luciferase assay; format: cell-based
T1 sequence (whole entry): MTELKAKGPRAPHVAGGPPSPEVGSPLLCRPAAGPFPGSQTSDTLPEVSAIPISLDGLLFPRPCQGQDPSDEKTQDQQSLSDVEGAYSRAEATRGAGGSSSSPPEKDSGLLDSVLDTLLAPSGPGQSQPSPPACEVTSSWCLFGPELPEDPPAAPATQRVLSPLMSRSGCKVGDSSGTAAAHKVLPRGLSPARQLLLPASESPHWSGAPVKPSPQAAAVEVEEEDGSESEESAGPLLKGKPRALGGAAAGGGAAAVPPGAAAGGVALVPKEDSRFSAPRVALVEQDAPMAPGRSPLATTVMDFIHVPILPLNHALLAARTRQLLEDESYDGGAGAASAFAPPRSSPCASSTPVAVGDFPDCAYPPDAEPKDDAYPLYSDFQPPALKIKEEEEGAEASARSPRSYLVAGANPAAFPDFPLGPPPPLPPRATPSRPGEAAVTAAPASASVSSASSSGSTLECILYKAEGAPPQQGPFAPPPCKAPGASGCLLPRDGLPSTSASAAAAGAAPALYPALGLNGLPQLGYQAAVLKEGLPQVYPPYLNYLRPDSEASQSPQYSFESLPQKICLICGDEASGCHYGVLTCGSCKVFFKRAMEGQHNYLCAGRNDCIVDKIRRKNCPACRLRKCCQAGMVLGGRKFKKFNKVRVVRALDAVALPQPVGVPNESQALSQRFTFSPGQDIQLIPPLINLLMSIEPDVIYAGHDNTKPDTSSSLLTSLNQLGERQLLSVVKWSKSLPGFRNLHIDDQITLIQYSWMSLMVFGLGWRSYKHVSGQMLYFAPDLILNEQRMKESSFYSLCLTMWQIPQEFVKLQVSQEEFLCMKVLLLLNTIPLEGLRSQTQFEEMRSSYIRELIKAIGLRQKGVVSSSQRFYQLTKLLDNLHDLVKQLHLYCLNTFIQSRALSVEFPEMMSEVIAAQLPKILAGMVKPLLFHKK

[3] = molecular target: T2, Androgen receptor (Homo sapiens) (UniProt P10275); assay: Antagonist activity at androgen receptor in human LNCaP cells assessed as reduction in DHT-induced PSA mRNA expression after 48 hrs by SYBR green dye based qPCR analysis; format: cell-based; settings: filed as antagonist, dose 0.1-10 µM
T2 sequence (whole entry): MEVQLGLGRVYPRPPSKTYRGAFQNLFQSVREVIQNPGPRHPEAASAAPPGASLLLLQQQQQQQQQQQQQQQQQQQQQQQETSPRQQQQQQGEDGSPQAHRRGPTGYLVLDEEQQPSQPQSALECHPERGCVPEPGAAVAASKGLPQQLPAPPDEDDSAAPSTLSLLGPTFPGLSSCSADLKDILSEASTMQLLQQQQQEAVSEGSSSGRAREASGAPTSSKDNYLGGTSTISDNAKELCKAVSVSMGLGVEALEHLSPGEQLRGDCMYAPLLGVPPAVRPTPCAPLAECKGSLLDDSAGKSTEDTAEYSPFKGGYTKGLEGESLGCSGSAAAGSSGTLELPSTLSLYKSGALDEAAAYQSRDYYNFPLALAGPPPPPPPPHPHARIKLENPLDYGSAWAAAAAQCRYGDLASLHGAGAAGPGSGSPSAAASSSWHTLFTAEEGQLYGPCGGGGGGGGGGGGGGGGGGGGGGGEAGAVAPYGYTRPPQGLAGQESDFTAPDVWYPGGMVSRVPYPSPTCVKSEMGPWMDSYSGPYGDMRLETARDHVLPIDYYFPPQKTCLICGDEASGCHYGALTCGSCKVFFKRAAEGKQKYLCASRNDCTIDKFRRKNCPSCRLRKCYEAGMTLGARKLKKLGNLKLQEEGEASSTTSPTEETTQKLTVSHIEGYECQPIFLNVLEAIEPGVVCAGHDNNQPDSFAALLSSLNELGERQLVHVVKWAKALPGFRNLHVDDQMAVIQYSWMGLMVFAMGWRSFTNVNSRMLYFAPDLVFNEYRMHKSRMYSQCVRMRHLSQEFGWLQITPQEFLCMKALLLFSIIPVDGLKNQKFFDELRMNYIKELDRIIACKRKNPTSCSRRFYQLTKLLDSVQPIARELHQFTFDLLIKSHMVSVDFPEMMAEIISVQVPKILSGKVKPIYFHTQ

CWR22R = assay: Cytotoxicity against human 22Rv1 cells assessed as reduction in cell viability incubated for 72 hrs by MTT assay; format: functional, cell-based
HepG2 [4] = assay: Cytotoxicity against human HepG2 cells assessed as reduction in cell viability at low concentration incubated for 72 hrs by MTT assay; format: functional, cell-based
LNCaP [5] = assay: Cytotoxicity against human LNCaP cells assessed as reduction in cell viability incubated for 72 hrs by MTT assay; format: functional, cell-based
GES1 = assay: Cytotoxicity against human GES1 cells assessed as reduction in cell viability incubated for 72 hrs by MTT assay; format: cell-based; settings: ges1, 72 h
HeLa = assay: Cytotoxicity against human HeLa cells assessed as reduction in cell viability at low concentration incubated for 72 hrs by MTT assay; format: functional, cell-based
[6] = Cytotoxicity against human chang cells assessed as reduction in cell viability at 50 uM incubated for 72 hrs by MTT assay; format: cell-based; settings: chang liver
Androgen receptor = molecular target: T3, Androgen receptor (Homo sapiens, UniProt P10275)
T3 sequence (P10275 whole entry): T2 sequence (whole entry)
Description: Binding affinity to GST-tagged AR ligand binding domain (unknown origin) measured after 4 hrs by fluorescence polarization assay

HepG2 [7] = assay: Cytotoxicity against human HepG2 cells assessed as reduction in cell viability at 50 uM incubated for 72 hrs by MTT assay; format: functional, cell-based

- Activity [2]: inactive
- Activity [3]: Dose-dependent effect
- IC50 (Androgen receptor): 750 nM
Compound: O=c1cc(C(F)(F)F)c2ccc(OCc3ccc(Br)cc3)cc2o1
- Activity (NIH3T3): Non-Toxic
- Activity (PC-3): Active
- inhibition (LNCaP [1]): Dose-dependent effect
- Activity (CWR22R): Active
- Activity (HepG2 [4]): inactive
- Activity (LNCaP [5]): Active
- Activity (GES1): Non-Toxic
- Activity (HeLa): inactive
- Activity [6]: Non-Toxic
- Activity (HepG2 [7]): Active
